From US20220274947A1, “NOVEL HETEROARYL-TRIAZOLE COMPOUNDS AS PESTICIDES” (Bayer Aktiengesellschaft, priority 2019, published 2022) come the findings set out here.

Common to all, as to format: in vivo
The test system of assay [1] is Rhipicephalus microplus. The assay can be described thus: Rhipicephalus (Boophilus) microplus injection test (BOOPMI Inj). The settings on record: 168 h, injection into adult engorged female ticks, egg deposition after 7 days, read-out: activity (efficacy: 100% means all eggs are infertile); for pest or weed control at 0.004 mg: application rate 4 μg/tick; for pest or weed control at 0.02 mg: application rate 20 μg/tick. Put shortly:
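Five engorged adult female R. microplus ticks injected into the abdomen with 1 μL of compound diluted in DMSO, then kept in a climate chamber. Fertile egg deposition checked after 7 days; eggs without visible fertility held until hatching at about 42 days. Efficacy: 100% = all eggs infertile, 0% = all fertile.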

Assay [2] relates to Rhipicephalus microplus. The assay can be described thus: Rhipicephalus (Boophilus) microplus in-vitro contact test, larval cattle tick, strain Parkhurst (BOOPMI Cont). The settings on record: application rate 5 μg/cm^2 (=500 g/ha), tick larvae, after 48 hours, read-out: activity (efficacy: 100% means all larvae are dead or moribund). The essentials: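 Acetone solutions dried onto glass tube walls (900 ppm giving 5 μg/cm^2); 20-50 pyrethroid-resistant Parkhurst larvae added per tube and held 48 h at 27° C., 85% relative humidity. Efficacy scored by negative geotaxis as % dead or moribund larvae.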

The next assay deals with Ctenocephalides felis. The assay can be described thus: Ctenocephalides felis in-vitro contact test, adult cat flea (CTECFE Cont). The settings on record: application rate 5 μg/cm^2 (=500 g/ha), adult cat fleas, after 48 hours, read-out: activity (efficacy: 100% means all fleas are dead or moribund). The essentials:
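Acetone solutions coated on glass tube inner walls (900 ppm giving 5 μg/cm^2), then 5-10 adult fleas added and held 48 h at room temperature. Fleas unable to escape a 45-50° C. heating plate within 5 min scored dead or moribund; efficacy = % dead/moribund.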

Another assay has as its system Diabrotica balteata. The assay can be described thus: Diabrotica balteata spray test. The settings on record: 168 h, wheat seeds, larvae, after 7 days, read-out: activity (efficacy: 100% means all seedlings have grown up like in the untreated, uninfected control); for pest or weed control at 32 µg/disc, 100 g/ha: application rate 100 g/ha (=32 μg/well); for pest or weed control at 160 µg/disc, 500 g/ha: application rate 500 g/ha (=160 μg/well). Put shortly:
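Wheat seedlings, germinated 1 day on agar, were sprayed with compound in acetone/DMF diluted in water containing emulsifier, then infested with 10-20 Diabrotica balteata larvae. After 7 days efficacy in % was scored: 100% means seedlings grew like the untreated, uninfected control; 0% means none grew.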

The next assay deals with Spodoptera frugiperda. Description: Spodoptera frugiperda spray test. Conditions: in Zea mays, 168 h, read-out: activity (mortality). The essentials:
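Maize leaf sections were sprayed with compound formulated in acetone/DMF and diluted in water containing 1000 ppm emulsifier. Dried leaves were infested with fall armyworm larvae, and percent mortality was scored after 7 days.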

For assay [3], the system named is Aedes aegypti strain MONHEIM. The assay can be described thus: Aedes aegypti test (AEDSAE surface treatment & contact assay). The settings on record: exposure 30 minutes, 24 hours after contact, read-out: efficacy (mortality); for mortality at 4 mg/m2: surface concentration 4 mg/m^2, glazed tile; for mortality at 20 mg/m2: surface concentration 20 mg/m^2, glazed tile. The essentials: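 Compound dissolved in acetone (2 mg/ml) with 2000 ppm rapeseed oil methyl ester, pipetted onto glazed tile and dried. Adult mosquitoes exposed on the surface for 30 min; percent mortality scored 24 h after contact.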

Assay [4] deals with Culex quinquefasciatus strain P00. Description: Culex quinquefasciatus test (CULXFA surface treatment & contact assay). Conditions: exposure 30 minutes, 24 hours after contact, read-out: efficacy (mortality); for mortality at 20 mg/m2: surface concentration 20 mg/m^2, glazed tile; for mortality at 4 mg/m2: surface concentration 4 mg/m^2, glazed tile. Put shortly:
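Test compound in acetone (2 mg/ml) with 2000 ppm RME pipetted onto glazed tile; after acetone evaporation, adult strain P00 mosquitoes exposed to dried surface for 30 min. Mortality (%) scored 24 h after contact; 100% = all dead, 0% = none dead.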

Structures are written as SMILES.

As to `C[C@H](NC(=O)c1cc(Br)cc(Br)c1)c1ncnn1-c1ccc(C#N)cn1` [II-13], in the assay on Rhipicephalus microplus [1], the pest or weed control at 0.004 mg worked out at 100% and the pest or weed control at 0.02 mg came to 100%. Besides, in the assay with Rhipicephalus microplus [2], the pest or weed control at 5 µg/cm2 is 100%. The pest or weed control at 5 µg/cm2 in the assay with Ctenocephalides felis stood at 100%. Moreover, the pest or weed control at 32 µg/disc, 100 g/ha in the assay on Diabrotica balteata amounted to 100%. Moreover, in the assay on Spodoptera frugiperda, the mortality at 100 g/ha came to 100% and the mortality at 500 g/ha was 100%. For the same compound, in assay [3], the mortality at 4 mg/m2 is 80 to 100% and the mortality at 20 mg/m2 lay within 80 to 100%. For the same compound, the mortality at 20 mg/m2 in assay [4] was 80 to 100%.
Consider `C[C@H](NC(=O)c1cc(Cl)cc(C(F)(F)F)c1)c1ncnn1-c1cc(-n2cncn2)ccn1` [II-43], for which, in the assay with Rhipicephalus microplus [1], the pest or weed control at 0.004 mg stood at 100% and the pest or weed control at 0.02 mg worked out at 100%. Further, the pest or weed control at 5 µg/cm2 with Rhipicephalus microplus [2] is 100%. Also, the pest or weed control at 5 µg/cm2 in the assay with Ctenocephalides felis worked out at 100%. Moreover, in the assay on Diabrotica balteata, the pest or weed control at 32 µg/disc, 100 g/ha came out at 100% and the pest or weed control at 160 µg/disc, 500 g/ha was determined as 100%. In addition, in the assay with Spodoptera frugiperda, the mortality at 100 g/ha worked out at 100% and the mortality at 500 g/ha turned out to be 100%. Also, in assay [3], the mortality at 4 mg/m2 fell in the range of 80 to 100% and the mortality at 20 mg/m2 fell in the range of 80 to 100%. The mortality at 4 mg/m2 in assay [4] lay in the range of 80 to 100%.
Take `C[C@H](NC(=O)c1cc(Cl)cc(OC(F)(F)F)c1)c1ncnn1-c1ncc(OC(F)F)cn1` [II-30]: in the assay on Rhipicephalus microplus [1], the pest or weed control at 0.004 mg was determined as 100% and the pest or weed control at 0.02 mg is 100%. The pest or weed control at 5 µg/cm2 with Rhipicephalus microplus [2] came out at 100%. In addition, the pest or weed control at 5 µg/cm2 in the assay on Ctenocephalides felis came out at 100%. For the same compound, in the assay on Diabrotica balteata, the pest or weed control at 32 µg/disc, 100 g/ha worked out at 100% and the pest or weed control at 160 µg/disc, 500 g/ha turned out to be 100%. Further, in the assay on Spodoptera frugiperda, the mortality at 100 g/ha came out at 100% and the mortality at 500 g/ha was determined as 100%. In assay [3], the mortality at 4 mg/m2 lay within 80 to 100% and the mortality at 20 mg/m2 is 80 to 100%. The mortality at 4 mg/m2 in assay [4] lay in the range of 80 to 100%.
Turning to `C[C@H](NC(=O)c1cc(Cl)cc(OC(F)(F)F)c1)c1ncnn1-c1ncc(Cl)s1` [II-16], the pest or weed control at 0.004 mg in the assay with Rhipicephalus microplus [1] is 100%. In addition, the pest or weed control at 0.02 mg in the assay on Rhipicephalus microplus [1] amounted to 100%. In addition, the pest or weed control at 5 µg/cm2 in the assay on Rhipicephalus microplus [2] and in the assay with Ctenocephalides felis was 100% each time. Besides, in the assay on Diabrotica balteata, the pest or weed control at 32 µg/disc, 100 g/ha was 100%. Moreover, the pest or weed control at 160 µg/disc, 500 g/ha with Diabrotica balteata came out at 100%. The mortality at 100 g/ha with Spodoptera frugiperda is 100%. For the same compound, the mortality at 20 mg/m2 in assay [3] and in assay [4] was 80 to 100% throughout.
For the compound `C[C@H](NC(=O)c1cc(C(F)(F)F)cc(C(F)(F)F)c1)c1ncnn1-c1ccc(C(=O)NC2CC2)cn1` [II-37], in the assay on Rhipicephalus microplus [1], the pest or weed control at 0.004 mg was found to be 100% and the pest or weed control at 0.02 mg was 100%. The pest or weed control at 5 µg/cm2 with Rhipicephalus microplus [2] turned out to be 100%. Besides, the pest or weed control at 5 µg/cm2 with Ctenocephalides felis is 100%. In the assay with Diabrotica balteata, the pest or weed control at 32 µg/disc, 100 g/ha stood at 100% and the pest or weed control at 160 µg/disc, 500 g/ha was found to be 100%. Moreover, in the assay on Spodoptera frugiperda, the mortality at 100 g/ha was 100% and the mortality at 500 g/ha came out at 100%. Moreover, in assay [3], the mortality at 4 mg/m2 lay in the range of 80 to 100% and the mortality at 20 mg/m2 fell in the range of 80 to 100%. Also, the mortality at 20 mg/m2 in assay [4] was 80 to 100%.
For the compound `C[C@H](NC(=O)c1cc(Cl)nc(C(F)(F)F)c1)c1ncnn1-c1ccc(C#N)cn1` [II-5], in the assay on Rhipicephalus microplus [1], the pest or weed control at 0.004 mg is 100% and the pest or weed control at 0.02 mg is 100%. In addition, the pest or weed control at 5 µg/cm2 in the assay with Rhipicephalus microplus [2] worked out at 100%. In the assay on Ctenocephalides felis, the pest or weed control at 5 µg/cm2 amounted to 100%. In addition, in the assay with Diabrotica balteata, the pest or weed control at 32 µg/disc, 100 g/ha came out at 100% and the pest or weed control at 160 µg/disc, 500 g/ha is 100%. Further, in the assay on Spodoptera frugiperda, the mortality at 100 g/ha is 100% and the mortality at 500 g/ha came to 100%. Further, in assay [3], the mortality at 4 mg/m2 was 80 to 100% and the mortality at 20 mg/m2 is 80 to 100%. Further, the mortality at 20 mg/m2 in assay [4] fell in the range of 80 to 100%.

For orientation: mortality means the share of the test organisms that died.
